{
  "source": "patent US6870044B2",
  "about": "“Inflammation inducible hybrid promoters, vectors comprising them and uses thereof” (Universite Pierre et Marie Curie, priority 2000, dated 2005)",
  "molecules": {"B1": {"name": "synthetic promoter: PPAR response element (DR1)2 21 linked to fragment −247/+20 of the PLA2s IIA gene (nucleic acid)", "DNA": "GTACCAATTCGACAAAACTAGGTCAAAGGTCATCAAAACTAGGTCAAAGGTCAAATTCGAACGCGGCAAAACTGCCTGAAATGTGTTTTGGCATCAGCTACTGACACGTAAGGTTTCCCAATCCTCAACTCTGTCCTGCCAGCTGATGAGGGGAAGGAAAGGGATTACCTAGGGGTATGGGCGACCAATCCTGAGTCCACCAACTGACCACGCCCATCCCCAGCCTTGTGCCTCACCTACCCCCAACCTCCCAGAGGGAGCAGCTATTTAAGGGGAGCAGGAGTGCAGAACAAACAAGACGGCCTGGGGATACAACTCTGGAGTCCTCTGAG", "modifications": "PPRE/PLA2s hybrid promoter", "notes": "PPAR response element (DR1)2 21 linked to fragment −247/+20 of the PLA2s IIA gene"}},
  "key": {"[1]": {"system": "construct (DR)2 21-(−247/+20) sPLA2-CAT", "assay": "CAT reporter, hybrid promoter (DR1)2 21-(−247/+20) sPLA2-CAT in transfected chondrocytes", "assay_type": "cell-based, rabbit", "conditions": "for induction of the hybrid promoter, single inducer: PGJ2 10 μM, IL-1 10 ng/ml; for activation of the construct (DR1)2 21-(−247/+20)-CAT: 10^−4 M", "experimental": "(§1) The hind and forelegs of 3-week-old prepubescent rabbits (Fauve de Bourgogne) were dissected and chopped up under sterile conditions. The cartilage is removed with a scalpel and then the chondrocytes are dissociated by means of proteolytic enzymes: hyaluronidase 0.05% for 15 minutes, trypsine 0.25% for 30 minutes and collagenase 0.2% for 90 minutes. Finally, the HAM's F12 medium is added for 60 minutes. The suspension of chondrocytes is cultured in dishes 6 cm in diameter (150,000 cells per dish) in the presence of HAM's F12 medium containing 10% fetal calf serum.\n(§2) When these cells reach preconfluence (6 to 7 days), they are transfected with the various constructs using the calcium phosphate method.\n(§3) The CAT activity is measured according to the double liquid phase technique according to Desbois et al. (1992). The β-galactosidase activity is measured with the aim of normalizing the variations in the transfection efficiency.\n(§4) The fragment −247/+20 of the promoter of sPLA2 IIA (SEQ ID NO:5) was subcloned upstream of the CAT reporter vector for the plasmid PUC-SH-CAT. Upstream of this promoter, the different PPRE sequences cited above (SEQ ID NO: 1-4) were inserted.\n(§5) The rabbit chondrocytes were then transfected with the CAT constructs containing the different arrangements of PPRE (DR1) placed upstream of the minimal promoter of sPLA2-IIA. 15 deoxy Δ^12-14 PGJ2 (10 μM) (activator of PPARγ) or Wy-14643 (200 μM) (activator of PPARα) were then added to the culture medium for 24 hours.\n(§6) Rabbit chondrocytes were then transfected, either with the minimal promoter of sPLA2-IIA, or with the sequence (DR1)2 21 placed upstream of the latter (hybrid promoter). PGJ2 (10 μM) and/or IL-1 (10 ng/ml) are added to the culture medium."}, "[2]": {"system": "minimal promoter (−247/+20) of sPLA2-IIA", "assay": "CAT reporter, minimal promoter (−247/+20) of sPLA2-IIA in transfected chondrocytes", "assay_type": "cell-based, rabbit", "conditions": "for activation of the minimal promoter (−247/+20) of sPLA2-IIA: PGJ2 10 μM or Wy-14643 200 μM, 24 hours", "experimental": "as §1, §2, §3, §4, §5, §6"}, "[3]": {"system": "PPARγ and RXR proteins prepared in Cos-1 cells", "assay": "Gel retardation, cooperative binding of PPARγ/RXR to radiolabeled PPRE sequences", "conditions": "for cooperativity ratio KdII/KdIV (R): PPARγ/RXR ratio 3:1, Cos-1 extracts 1 μl to 10 μl, Phosphorimager quantification", "experimental": "(§7) The Cos-1 cells (transformed monkey kidney fibroblasts) are transfected according to the abovementioned calcium phosphate technique using 20 μg of vectors for expression of PPARγ, PPARα or RXR. Non-transfected Cos-1 cells will serve as control. 48 hours after the transfection, the cells are incubated with a buffer containing KCl (0.45 M), Tris-HCl (20 mM, pH=7.5) and 10% glycerol. They are detached by scraping and then disrupted by cooling to −80° C. and thawing at 37° C. These cells are then centrifuged at 15,000 rpm, for 10 minutes at 4° C. The supernatant is then frozen at −80° C. and used for the gel retardation experiments.\n(§8) The sequences DR1, (DR1)2 17, (DR1)2 21, and (DR1)2 31 are radiolabeled by means of the Klenow fragment of DNA polymerase using [α-^32P]dCTP. One hundred thousand cpm (0.4 ng) of the radiolabeled probes are incubated, for 30 minutes at 4° C., with increasing quantities of Cos-1 extracts enriched with PPAR and RXR (as indicated in the legend to the figures) and with a specific binding buffer (KCl 100 mM, Hepes 40 mM, pH 7.5, NP40 0.1%, ZnCl2 0.5 mM, PEG 8%). The mixture is then deposited on an acrylamide/bisacrylamide gel (5%, TBE 0.25×) and run for 2 hours 30 min at 200 volts. The gel is then dried and autoradiographed.\nIn order to verify the functional nature and the efficiency of the above PPRE regions, gel retardation experiments were carried out consisting in studying the binding between one of the four sequences above, radiolabeled beforehand, in the presence of increasing quantities (5 and 10 μl) of PPARγ and RXR proteins prepared in Cos-1 cells (PPARγ/RXR ratio=3:1).\nWith the aim of studying the cooperativity of the binding of PPAR/RXR to these different sequences, gel retardation experiments placing increasing quantities of Cos-1 extracts enriched with PPAR and RXR (1 μl to 10 μl), followed by quantification of the radioactivity obtained, were carried out. The formation of the first PPAR/RXR dimer is characterized by the dissociation constant KdII, that of the double dimer, or tetramer, is characterized by the dissociation constant KdIV. The KdII/KdIV ratio (R) is the reflection of the cooperativity of the binding if it is greater than 1.\nThe various dimeric and tetrameric complexes and the free probe were quantified by means of a Phosphorimager and represented in FIG. 3. The cooperativity ratios were calculated by means of the abovementioned formula. The sequences (DR1)2 17 and (DR1)2 31 bind as many dimeric and tetrameric forms. The cooperativity ratios are 9 and 12.6 respectively. […] The dimeric form forms only 20% of the total binding, whereas the tetrameric form forms 80% of the total binding. The cooperativity ratio is 34 +/−11."}, "[4]": {"system": "PPARα/RXR heterodimer (Cos-1 extracts enriched with PPARα and RXR)", "assay": "Gel retardation, cooperative binding of PPARα/RXR to radiolabeled PPRE sequences", "conditions": "PPARα/RXR 3/1, bands counted on a beta scintillation counter", "experimental": "as §7, §8\nWith the aim of studying the cooperativity of the binding of PPAR/RXR to these different sequences, gel retardation experiments placing increasing quantities of Cos-1 extracts enriched with PPAR and RXR (1 μl to 10 μl), followed by quantification of the radioactivity obtained, were carried out. […]\nSimilar experiments were carried out with PPARα. […] Gel retardation experiments using the four radiolabeled sequences and increasing quantities of Cos-1 extracts enriched with PPARα and RXR (rapport3/1) were carried out. The bands corresponding to the dimeric (D) or tetrameric (T) forms or the free probe (P) were cut out of the gel and then quantified by counting on a beta scintillation counter (FIG. 4). […]"}, "[5]": {"conditions": "form not soluble in water, dose 5 to 50 mg/kg, for example 30 mg/kg; cited from earlier work"}, "[6]": {"system": "RSV (Rous Sarcoma Virus) promoter (comparator)", "assay": "Transcriptional activity of the synthetic promoter compared with the RSV viral promoter", "assay_type": "cell-based", "source_text": "Finally, the levels of transcriptional activities reached by a viral promoter, such as the RSV (Rous Sarcoma Virus) promoter, and that of the synthetic promoter were compared. The basal transcriptional activity of the synthetic promoter is low, it is less than 5% of the activity of the RSV viral promoter."}},
  "note": "“And” between values parts separate entries of the source, which are not always exact repeats. Equal values may be shown once.",
  "data": [
    {"molecule": "C[C@@H]1C[C@H]2[C@@H]3CCC4=CC(=O)C=C[C@]4(C)[C@@]3(F)[C@@H](O)C[C@]2(C)[C@@]1(O)C(=O)CO", "note": "[Dexamethasone, dexamethasone]", "values": [
      {"measurement": "activation of transcription of the synthetic promoter", "setting": "[1]; dexamethasone alone, concentration not given", "value": "about 6 fold"}
    ]},
    {"molecule": "CCCCC/C=C/C=C1/C(=O)C=C[C@@H]1C/C=C\\CCCC(=O)O", "note": "[PGJ2, 15 deoxy Δ^12-14 PGJ2]", "values": [
      {"measurement": "induction of the hybrid promoter, single inducer", "setting": "[1]", "value": 4, "unit": "fold"},
      {"measurement": "activation of the minimal promoter (−247/+20) of sPLA2-IIA", "setting": "[2]", "value": "not activated"},
      {"measurement": "activation of the minimal promoter (−247/+20) of sPLA2-IIA", "setting": "[2]; listed as prostaglandin J2", "value": "no effect"}
    ]},
    {"molecule": "COc1ccc2c(c1)c(CC(=O)O)c(C)n2C(=O)c1ccc(Cl)cc1", "note": "[indomethacin]", "values": [
      {"measurement": "activation of the construct (DR1)2 21-(−247/+20)-CAT", "setting": "[1]", "value": "about fivefold"}
    ]},
    {"molecule": "Cc1cccc(Nc2cc(Cl)nc(SCC(=O)O)n2)c1C", "note": "[Wy-14643, pirinixic acid]", "values": [
      {"measurement": "activation of transcription of the hybrid construct", "setting": "[1]; Wy-14643 200 μM", "value": "3 to 4", "unit": "fold"},
      {"measurement": "activation of the minimal promoter (−247/+20) of sPLA2-IIA", "setting": "[2]", "value": "no effect"},
      {"measurement": "activation of the minimal promoter (−247/+20) of sPLA2-IIA", "setting": "[2]; listed as Wy 14643", "value": "not activated"}
    ]},
    {"molecule": "(DR1)2 17: two DR1s separated center to center by 17 base pairs (DNA CAAAACTAGGTCAAAGGTCAAAACTAGGTCAAAGGTCA; radiolabeled by Klenow fill-in with 32P-dCTP, further chemistry not given here)", "values": [
      {"measurement": "cooperativity ratio KdII/KdIV (R)", "setting": "[3]", "value": 9},
      {"measurement": "cooperativity ratio (R)", "setting": "[4]", "value": 7}
    ]},
    {"molecule": "(DR1)2 21: two DR1s separated center to center by 21 base pairs (DNA CAAAACTAGGTCAAAGGTCATCAAAACTAGGTCAAAGGTCA; radiolabeled by Klenow fill-in with 32P-dCTP, further chemistry not given here)", "values": [
      {"measurement": "dimeric form, share of total binding", "setting": "[3]; PPARγ/RXR", "value": 20, "unit": "%"},
      {"measurement": "tetrameric form, share of total binding", "setting": "[3]; PPARγ/RXR", "value": 80, "unit": "%"},
      {"measurement": "cooperativity ratio KdII/KdIV (R)", "setting": "[3]", "value": "34 +/−11"},
      {"measurement": "cooperativity ratio (R)", "setting": "[4]", "value": "11.2 and 11"}
    ]},
    {"molecule": "CC(C)Cc1ccc(C(C)C(=O)O)cc1", "note": "(centres unmarked) [ibuprofen]", "values": [
      {"measurement": "activation of the construct (DR1)2 21-(−247/+20)-CAT", "setting": "[1]", "value": 17, "unit": "fold"}
    ]},
    {"molecule": "(DR1)2 31: two DR1s separated center to center by 31 base pairs (DNA CAAAACTAGGTCAAAGGTCATGTCTTTAGGCCCAAAACTAGGTCAAAGGTCA; radiolabeled by Klenow fill-in with 32P-dCTP, further chemistry not given here)", "values": [
      {"measurement": "cooperativity ratio KdII/KdIV (R)", "setting": "[3]", "value": 12.6},
      {"measurement": "cooperativity ratio (R)", "setting": "[4]", "value": "11.6 and 11"}
    ]},
    {"molecule": "IL-1: pro-inflammatory cytokine interleukin-1", "values": [
      {"measurement": "induction of the hybrid promoter, single inducer", "setting": "[1]", "value": 4, "unit": "fold"},
      {"measurement": "stimulation of the activity of the CAT reporter gene", "setting": "[2]; 247 bp fragment upstream of first exon of human PLA2s IIA gene, rabbit chondrocytes in primary culture", "value": "6 to 8", "unit": "times"},
      {"measurement": "induction of the promoter of sPLA2-IIA", "setting": "[2]; IL-1 10 ng/ml in culture medium", "value": 6, "unit": "fold"}
    ]},
    {"molecule": "CN(CCOc1ccc(CC2SC(=O)NC2=O)cc1)c1ccccn1", "note": "(centres unmarked) [BRL 49653, rosiglitazone]", "values": [
      {"measurement": "plasma concentration", "setting": "[5]", "value": "about 15 μg/ml"}
    ]},
    {"molecule": "B1", "values": [
      {"measurement": "transcriptional activity relative to RSV after induction", "setting": "[6]; after induction with the different effectors (results not shown)", "value": 40, "unit": "%"},
      {"measurement": "basal transcriptional activity, relative to the RSV viral promoter", "setting": "[6]; not induced", "value": "less than 5%"}
    ]}
  ]
}
